For 74 molecules, IC50 results are on record in PubChem BioAssay AID488890 (Southern Research Specialized Biocontainment Screening …, 2010).

Results filed as inconclusive are left out. Calls of active or inactive are those of the source. The rule behind the calls is not given here.

Broadly, the IC50 is the point on the concentration scale where inhibition reaches its midpoint.

This assay deals with Mycobacterium tuberculosis non-replicating, growth inhibition. As to the kind of experiment: growth inhibition of non-replicating M. tuberculosis (AID 488890).
For `O=C(N/N=C/c1cc(Br)cc(Br)c1O)c1cccc(N2CCCC2=O)c1`, the IC50 is 4.24 µM.
For the molecule `CCC/C(=N\NC(=O)c1ccco1)c1ccc(Cl)s1`, the IC50 was 9.41 µM.
For `CCCCn1c(O)c(/C=C2/C=CC=N2)c(=O)[nH]c1=O`, the IC50 was 1.17 µM.
The same measure for `CCCOc1ccc(C(=O)C(CN2CCCC2)c2ccccc2)cc1` (centres undefined): 3.82 µM; for `COc1ccc(N=N/C(=C\O)C(=O)c2cccs2)cc1`: 9.69 µM; for `CC(C)=CCN1CCN(Cc2cn(C(C)C)c3ccccc23)CC1CCO` (centres undefined): 22.1 µM (inactive).
The same measure for `Cc1cc(C(=O)COc2cccc3cccnc23)c(C)n1C`: 5.1 µM; for `Cc1ccc(S(=O)(=O)NCC(=O)OCCOc2cccc(Cl)c2)cc1`: 27.7 µM (inactive); for `O=C(c1ccccc1)n1c(=O)c(F)cn(COCCBr)c1=O`: 21 µM (inactive).
Next, `O=C(NCCC1=CCCCC1)c1coc(=O)c(Br)c1`: 23.7 µM (inactive); `Cn1c(=O)[nH]c(=O)c2c1nc([N+](=O)[O-])n2Cc1ccccc1`: 4.58 µM.
`Cc1ccc(NC(=O)COC(=O)C(NS(=O)(=O)c2ccc(Cl)cc2)C(C)O)cc1C` (centres undefined): the IC50 was 22.1 µM (inactive).
Consider `Cc1cccc(Nc2nc(-c3ccccn3)cs2)n1`, for which the IC50 was 0.95 µM.
Turning to `C/C(CC(=O)Nc1ccc(N(C)C)cc1)=N\NC(=O)c1ccncc1`, the IC50 was 0.3 µM.
The same measure for `COC(=O)COc1ccc2cc(-c3ccc(OC)cc3)c(=O)oc2c1`: 1.41 µM; for `Nc1nc2ccccc2n1CCOc1ccccc1Cl`: 7.58 µM.
The same measure for `CCC(C)[C@H]1CN=C(N)N1CCc1cccc2ccccc12` (some centres undefined): 12.5 µM (inactive).
On to `O=C(N/N=C/c1cc([N+](=O)[O-])ccc1O)C12CC3CC(CC(C3)C1)C2`, for which the IC50 is 1.15 µM.
Take `CCn1c(=O)c(C(=O)Nc2ncccc2C)c(O)c2ccccc21`: the IC50 is 9.94 µM.
For the molecule `O=C(C#Cc1ccccc1)c1ccco1`, the IC50 was 0.43 µM.
Regarding `CC1N(C)c2cccc3cccc(c23)N1C`, the IC50 was 36.8 µM (inactive).
Take `CCCCCCCC(=O)N/N=C(\C)c1ccc(O)cc1O`: the IC50 is 1.57 µM.
For `Nc1ccc2c(c1)oc1ccccc12`, the IC50 was 2.05 µM.
For the molecule `O=C(CCN1CCOCC1)c1ccc(Cl)cc1`, the IC50 was 7.01 µM.
Next, `COc1ccc(CN2CCC(C(=O)Nc3ccc(Oc4cccnc4)cc3)CC2)c(C)c1C`: 7.54 µM; `O=C(COc1c(Br)cc(Br)c2cccnc12)N1CCCCC1`: 9.93 µM.
The same measure for `Cc1nnc(NC(=O)c2ccc3ccccc3c2)o1`: 1.55 µM; for `CN1CCN(C2Cc3ccccc3Sc3cc(C(F)(F)F)ccc32)CC1` (centres undefined): 12 µM (inactive).
Next, `NC(=O)N=Nc1c2[nH]c3ccccc3nc-2c2ccccc12`: 9.06 µM.
Take `O=C(CCC1CCCC1)c1c(O)c2ccccc2oc1=O`: the IC50 is 1.93 µM.
In the case of `CSc1nn(-c2ccc(C(=O)OCC(=O)NC(=O)NC(C)C)cc2)c(=S)s1`, the IC50 is 16 µM (inactive).
Next, `CC(C)OC(=O)CCCCCN1C(=O)CSC1=S`: 1.94 µM.
Next, `Cc1cc([N+](=O)[O-])ccc1NC(=O)Nc1ccc(F)cc1F`: 21.9 µM (inactive).
Next, `CC1=NN(C(=O)c2csc(C(C)C)c2)C(O)(C(F)(F)F)C1` (centres undefined): 0.36 µM; `COC(=O)c1ccc(C(=O)NC2CC(C)(C)Cc3c2cnn3-c2ccc(F)cc2)nc1` (centres undefined): 15.7 µM (inactive).
As to `CCOC(=O)c1cc([N+](=O)[O-])c([N+](=O)[O-])cc1NC(C)=O`, the IC50 was 2.44 µM.
The same measure for `O=C(Nc1nc2ccc(F)cc2s1)c1ccccn1`: 0.11 µM.
Next, `CCOC(=O)c1ccc(COC(=O)c2cc3ccccc3oc2=O)o1`: 12.1 µM (inactive); `Cc1[nH]n(-c2ccccc2)c(=O)c1C=Nc1cnc2ccccc2c1`: 6.23 µM; `COc1ccc2c(c1)C(=C(C#N)C#N)C(=O)N2CCc1ccccc1`: 25 µM (inactive).
Next, `CCOc1ccc(NCC(=O)c2ccc(C)cc2)cc1`: 4.95 µM.
`COC(=O)COc1ccc2c(=O)c(-c3ccccc3)coc2c1`: the IC50 is less than 0.1 µM.
The same measure for `NC(=O)N/N=C/c1ccccc1OC(=O)c1cc2ccccc2oc1=O`: 3.77 µM; for `COc1ccc(OC)c(NC(=O)C(=O)NNC(=O)C23CC4CC(CC(C4)C2)C3)c1`: 5.4 µM; for `CCc1ccc(NC(=O)C(=O)NNC(=O)c2cccc(OC)c2)cc1`: 1.06 µM.
With `O=C(Nc1nnc(-c2ccc(Br)cc2)o1)c1ccco1`, the IC50 is 11.4 µM (inactive).
Regarding `COc1cccc(-c2nc(C=O)cs2)c1`, the IC50 was 37.2 µM (inactive).
As for `Cc1ccc(C(=O)O/N=C(\N)c2cccc([N+](=O)[O-])c2)cc1`, the IC50 was 7 µM.
Next, `O=C(CCSc1ccccc1)N1CCCC1`: 3.33 µM; `O=C(N/N=C/c1ccc([N+](=O)[O-])o1)c1cc2ccccc2o1`: 0.46 µM; `C#CCSc1nnc(-c2ccc([N+](=O)[O-])cc2)o1`: less than 0.1 µM.
Next, `CCOC(=O)COc1ccc(C(=O)NC2CCCCC2)cc1`: 4.04 µM.
On to `Cc1cc(OCCOCCNCc2ccccc2)ccc1C(C)C`, for which the IC50 is 15.1 µM (inactive).
The same measure for `CCCCOC(=O)c1ccc(NC(=O)C2CCCO2)cc1` (centres undefined): 10 µM (inactive); for `CC(=O)N(Cc1ccc(F)cc1)C1=C(NCCc2ccccc2)C(=O)c2ccccc2C1=O`: 4.4 µM.
Turning to `CC(CCc1ccccc1)NC(=O)COC(=O)c1cccs1` (centres undefined), the IC50 was 13.4 µM (inactive).
Turning to `CCOc1ccc(C(=O)Nc2nnc(C3=COCCO3)o2)cc1`, the IC50 was 22.2 µM (inactive).
As to `CSCCOC(=O)COc1ccc(/C=N/NC(=O)c2c(Cl)cnn2C)cc1`, the half-inhibitory concentration (IC50) is 8.85 µM.
On to `CC(C)OC(=O)c1cc(C(=O)c2cc(Cl)ccc2O)coc1=N`, for which the IC50 was 4.66 µM.
With `CCC(C)c1ccc(OCCn2ccnc2)cc1` (centres undefined), the IC50 is 10.4 µM (inactive).
The same measure for `COc1cccc(-c2nnc(NC(=O)c3ccc(S(=O)(=O)N4CCOCC4)cc3)o2)c1`: 18.7 µM (inactive).
As for `O=C(COc1ccc([N+](=O)[O-])cc1)NNC(=O)c1cccs1`, the IC50 is 28.1 µM (inactive).
The same measure for `CCc1ccc(/C=N/NC(=O)c2ccccn2)cc1`: 24.8 µM (inactive); for `CCCCN1CCC(O)(c2ccccc2)C(C(=O)c2ccccc2)C1` (centres undefined): 4.86 µM; for `O=C(NNC(=O)C12CC3CC(CC(C3)C1)C2)c1cnccn1`: 32.2 µM (inactive).
Turning to `CCCCNC(=O)N1CCc2ccccc2C1`, the 50% inhibitory concentration (IC50) is 5.03 µM.
Take `Sc1oc(-c2ccccc2)cc1C=Nc1ccccc1`: the IC50 was 26 µM (inactive).
Next, `CS(=O)(=O)c1sc(C#N)c2c1C(=O)CC(c1ccccc1)C2` (centres undefined): 0.82 µM; `Cc1ccccc1NC(=O)C1COc2ccccc2O1` (centres undefined): 9.25 µM.
Next, `CC(C)(C)Sc1ccc2nc3c(n2c1)CCCC3`: 9.32 µM; `CNc1nnc(Sc2ncccc2[N+](=O)[O-])s1`: 5.8 µM; `O=C(COC(=O)c1ccccc1)NC12CC3CC(CC(C3)C1)C2`: 24 µM (inactive).
Next, `CCOc1ccc2nc(NC(=O)c3ccccn3)sc2c1`: 1.03 µM; `O=C(COc1ccc(Cl)cc1)NNC(=O)c1ccccn1`: 12.1 µM (inactive).
